Measurements published in patent US6750244B2, “Compounds active at a novel site on receptor-operated calcium channels useful for treatment of neurological disorders and diseases” (NPS Pharmaceuticals, Inc., priority 1993, dated 2004).
“And” between values parts separate entries of the source, which are not always exact repeats. Equal entries are not always repeated. Structures can show the parent of a compound that is named as a salt. Where two headings read alike, the source gives them in different places.

Experiments:
[1] = biological target: NMDA receptor-ionophore complex (site labeled by [3H]MK-801); experiment: Inhibition of [3H]MK-801 binding in rat cortical/hippocampal washed membrane preparations; settings: read-out: IC50 (μM) vs. [3H]MK-801
[2] = tested on: NMDA receptor; experiment: Inhibition of NMDA/glycine-induced increases in intracellular calcium in cultured rat cerebellar granule cells (RCGC); assay type: cell-based; settings: for IC50: read-out: IC50 (μM) vs. NMDA
[3] = rat cortical/hippocampal washed membranes
[4] = NMDA/glycine-induced increases in intracellular calcium, cultured rat cerebellar granule cells

## C[C@H](C(c1ccccc1)c1ccccc1)[C@@H](C)N [Compound 86]
[1]; [3]
  IC50: 6 µM
[2]; [4]
  IC50: 1.2 µM

## CNC[C@H](C)C(c1cccc(F)c1)c1cccc(F)c1 [Compound 66]
[1]; [3]
  IC50: 1.2 µM
[2]; [4]
  IC50: 0.236 µM

## NCCC(Cc1ccccc1)c1ccccc1 (stereo not drawn) [Compound 125]
[1]; [3]
  IC50: 6.7 µM
[2]; [4]
  IC50: 1.7 µM

## NCC=C(c1ccccc1)c1cccc(F)c1 (racemic) [Compound 107, 3-(3-fluorophenyl)-3-phenyl-prop-2-ene-1-amine]
[1]; [3]
  IC50: 3.83 µM
[2]; [4]
  IC50: 2.67 µM

## NCCC1c2ccccc2Sc2ccccc21 [Compound 183]
[1]; [3]
  IC50: 5.01 µM
[2]; [4]
  IC50: 0.676 µM

## Cc1ccc(C(CCN)c2cccc(F)c2)cc1 (stereo not drawn) [Compound 29, 3-(3-fluorophenyl)-3-(4-methylphenyl)-1-propylamine]
[1]; [3]
  IC50: 5.8 µM
[2]; [4]
  IC50: 1.9 µM

## CNCCC=C1c2ccccc2CCc2ccccc21 [Nortriptyline, reference compound]
[1]
  IC50: 5.67 µM
[2]
  IC50: 3.7 µM

## NCCC(Oc1ccccc1)c1cccc(Cl)c1 (stereo not drawn) [Compound 148]
[1]; [3]
  IC50: 0.373 µM
[2]; [4]
  IC50: 0.549 µM

## NCCC(Oc1ccccc1)c1ccccc1 (stereo not drawn) [Compound 146]
[1]; [3]
  IC50: 0.372 µM
[2]; [4]
  IC50: 0.829 µM

## CCC(NCCC(c1ccccc1)c1ccccc1)c1ccccc1OC (racemic) [Compound 167, (R,S)-N-1-(2-methoxyphenylpropyl)-3,3-diphenylpropylamine]
[1]; [3]
  IC50: 14.5 µM
[2]; [4]
  IC50: 0.08 µM

## NCCc1ccccc1Cc1ccccc1 [Compound 128]
[1]
  IC50: 5.5 µM
[2]; [4]
  IC50: 0.646 µM

## CN(C)CCC(c1cccc(F)c1)c1cccc(F)c1 [Compound 123, N,N-dimethyl-3,3-bis(3-fluorophenyl)-1-propylamine]
[1]; [3]
  IC50: > 3 µM
[2]; [4]
  IC50: 9.6 µM

## CNCCC(c1ccccc1)c1ccccc1 [Compound 67, N-methyl-3,3-diphenylpropylamine]
[1]; [3]
  IC50: 2.9 µM
[2]; [4]
  IC50: 11 µM

## CCC(CCN)(c1cccc(F)c1)c1cccc(F)c1 [Compound 82, 3,3-bis(3-fluorophenyl)-3-ethyl-1-propylamine]
[1]; [3]
  IC50: 0.794 µM
[2]; [4]
  IC50: 0.106 µM

## NCCC(c1cccc(F)c1)c1ccccc1F (stereo not drawn) [Compound 52, 3-(2-fluorophenyl)-3-(3-fluorophenyl)-1-propylamine]
[1]; [3]
  IC50: 0.38 µM
[2]; [4]
  IC50: 0.102 µM

## NCC(c1ccc(F)cc1)c1ccc(F)cc1 [Compound 99]
[1]; [3]
  IC50: 105 µM
[2]; [4]
  IC50: > 100 µM

## NCCC(Oc1cccc(Cl)c1)c1cccc(Cl)c1 (stereo not drawn) [Compound 149]
[1]; [3]
  IC50: 0.15 µM
[2]; [4]
  IC50: 0.085 µM

## NCC=C(c1cccc(F)c1)c1cccc(F)c1 [Compound 139, 3,3-bis(3-fluorophenyl)-prop-2-ene-1-amine]
[1]; [3]
  IC50: 5.6 µM
[2]; [4]
  IC50: 1.97 µM and 1.4 µM

## NCC(c1cccc(F)c1)c1cccc(F)c1 [Compound 98, 2,2-bis(3-fluorophenyl)-1-ethylamine]
[1]; [3]
  IC50: 52.5 µM
[2]; [4]
  IC50: 7.9 µM

## NCCCc1ccccc1-c1cccc(F)c1 [Compound 124]
[1]; [3]
  IC50: 14.3 µM
[2]; [4]
  IC50: 3.5 µM

## NCCC(c1ccccc1F)c1ccccc1F [Compound 53, 3,3-bis(2-fluorophenyl)-1-propylamine]
[1]; [3]
  IC50: 4.2 µM
[2]; [4]
  IC50: 0.217 µM

## CN[C@@H](C)CC(c1cccc(F)c1)c1cccc(F)c1 [Compound 69]
[1]; [3]
  IC50: 0.366 µM
[2]; [4]
  IC50: 0.224 µM

## Fc1cccc(C(=C2CCNCC2)c2cccc(F)c2)c1 [Compound 110]
[1]; [3]
  IC50: 13.3 µM
[2]; [4]
  IC50: 42.7 µM

## NCCC1c2ccccc2COc2ccccc21 (stereo not drawn) [Compound 187, 11-(2-Aminoethyl)-11H-10,11-dihydrodibenzo[b,c]oxepine hydrochloride]
[1]; rat cortical/hippocampal washed membranes, hydrochloride
  IC50: 2.01 µM and 2.06 µM
[2]; [4]
  IC50: 1.78 µM

## Cc1c(F)cccc1C(CCN)c1cccc(F)c1 (stereo not drawn) [Compound 56, 3-(3-fluorophenyl)-3-(2-methyl-3-fluorophenyl)-1-propylamine]
[1]; [3]
  IC50: 0.955 µM
[2]; [4]
  IC50: 0.218 µM

## Fc1cccc(C(CCNCc2ccccc2)c2cccc(F)c2)c1 [Compound 92]
[1]; [3]
  IC50: 20.2 µM
[2]; [4]
  IC50: 1.3 µM

## COc1ccc(C(=CCN)c2cccc(F)c2)cc1F [Compound 172, (E))- and (Z)-3-(3-Fluoro-4-methoxy)-3-(3-fluorophenyl)allylamine hydrochloride]
[1]; [3]
  IC50: 37.3 µM
[2]; [4]
  IC50: 38 µM

## CCC(NCCC(c1ccccc1)c1ccccc1)c1cccc(Br)c1 (stereo not drawn) [Compound 161]
[1]; [3]
  IC50: 5.62 µM
[2]; [4]
  IC50: 0.247 µM

## Fc1cccc(C(c2cccc(F)c2)C2CCNCC2)c1 [Compound 112]
[1]; [3]
  IC50: 21 µM
[2]; [4]
  IC50: 28 µM and 28.9 µM

## CNCCCC1c2ccccc2C=Cc2ccccc21 [protriptyline, reference compound]
[1]; [3]
  IC50: 21.4 µM
[2]
  % inhibition vs. NMDA: 73% @ 10 μM
[2]; [4]
  IC50: ≤ 10 µM

## Cc1ccccc1C(CCN)c1cccc(F)c1 (stereo not drawn) [Compound 27, 3-(3-fluorophenyl)-3-(2-methylphenyl)-1-propylamine]
[1]; [3]
  IC50: 0.18 µM
[2]; [4]
  IC50: 0.071 µM

## N=C(N)CC(c1cccc(F)c1)c1cccc(F)c1 [Compound 89]
[1]; [3]
  IC50: 1.2 µM
[2]; [4]
  IC50: 0.24 µM

## NCC[C@H](Oc1cccc(F)c1)c1ccccc1 [Compound 186]
[1]; [3]
  IC50: 0.123 µM
[2]; [4]
  IC50: 0.155 µM

## CCC(NCCC(c1ccccc1)c1ccccc1)c1ccccc1 (stereo not drawn) [Compound 91]
[1]; [3]
  IC50: 14.1 µM
[2]; [4]
  IC50: 0.162 µM

## NCCCC(c1ccc(F)cc1)c1ccc(F)cc1 [Compound 104]
[1]; [3]
  IC50: > 10 µM
[2]; [4]
  IC50: 7.98 µM

## Fc1cccc(C(c2cccc(F)c2)C2CCNC2)c1 (stereo not drawn) [Compound 102]
[1]; [3]
  IC50: 3.3 µM
[2]; [4]
  IC50: 1.01 µM

## NCCCOCCCCOCCCNC(=O)Cc1ccc2ccccc2c1 [Compound 17]
[1]; [3]
  IC50: 36.3 µM
[2]; [4]
  IC50: 9.6 µM

## CCC(NCCC(c1ccccc1)c1ccccc1)c1ccc(OC)cc1 (stereo not drawn) [Compound 166]
[1]; [3]
  IC50: 36.7 µM
[2]; [4]
  IC50: 0.619 µM

## CCCC(NCCC(c1ccccc1)c1ccccc1)c1ccccc1 (stereo not drawn) [Compound 157]
[1]; [3]
  IC50: 23.2 µM
[2]; [4]
  IC50: 0.142 µM

## NCCC(Oc1cccc(F)c1)c1cccc(Cl)c1 (stereo not drawn) [Compound 150]
[1]; [3]
  IC50: 0.351 µM
[2]; [4]
  IC50: 0.195 µM

## NCCC(c1cc(F)cc(F)c1)c1cc(F)cc(F)c1 [Compound 95, 3,3-bis(3,5,difluorophenyl)-1-propylamine]
[1]; [3]
  IC50: 3 µM
[2]; [4]
  IC50: 0.311 µM

## NCCCOCCCCOCCCNC(=O)Cc1c[nH]c2ccc(Br)cc12 [Compound 16]
[1]; [3]
  IC50: 28.8 µM
[2]; [4]
  IC50: 5.1 µM

## CCC(NCCC(c1ccccc1)c1ccccc1)c1cccc(C)c1 (stereo not drawn) [Compound 168]
[1]; [3]
  IC50: 17.4 µM
[2]; [4]
  IC50: 0.092 µM

## CC(C)C(NCCC(c1ccccc1)c1ccccc1)c1ccccc1 (stereo not drawn) [Compound 158]
[1]; [3]
  IC50: 39.6 µM
[2]; [4]
  IC50: 0.351 µM

## Cc1ccccc1C(CCN)c1ccccc1C [Compound 65, 3,3-bis(2-methylphenyl)-1-propylamine]
[1]; [3]
  IC50: 2 µM
[2]; [4]
  IC50: 0.167 µM

## NCCOC(c1ccccc1)c1ccccc1 [Compound 88]
[1]; [3]
  IC50: 10.6 µM
[2]; [4]
  IC50: 2.5 µM

## NCCCC(c1cccc(F)c1)c1cccc(F)c1 [Compound 100, 4,4-bis(3-fluorophenyl)-1-butylamine]
[1]; [3]
  IC50: 3.2 µM
[2]; [4]
  IC50: 0.602 µM

## NCC=C(c1ccccc1)c1ccccc1 [Compound 81, 3,3-diphenyl-prop-2-ene-1-amine]
[1]; [3]
  IC50: 6.1 µM
[2]; [4]
  IC50: 1.4 µM

## CNCCC(c1ccccc1)c1cccc(F)c1 (stereo not drawn) [Compound 108, N-methyl-3-(3-fluorophenyl)-3-phenyl-1-propylamine]
[1]; [3]
  IC50: 0.942 µM
[2]; [4]
  IC50: 1.06 µM

## CC(NCCC(c1cccc(F)c1)c1cccc(F)c1)c1ccccc1 (stereo not drawn) [Compound 93]
[1]; [3]
  IC50: 26.9 µM
[2]; [4]
  IC50: 0.486 µM

## COc1ccccc1OC(CCN)c1cccc(F)c1 (stereo not drawn) [Compound 121]
[1]; [3]
  IC50: 0.67 µM
[2]; [4]
  IC50: 0.656 µM

## COc1cccc(/C(=C\CN)c2cccc(F)c2)c1 [Compound 141]
[1]; [3]
  IC50: 8.97 µM
[2]; [4]
  IC50: 4.26 µM

## CC(C)(CN)C(c1cccc(F)c1)c1cccc(F)c1 [Compound 41, 3,3-bis(3-fluorophenyl)-2,2-dimethyl-1-propylamine]
[1]; [3]
  IC50: 14 µM
[2]; [4]
  IC50: 0.724 µM

## COc1cccc(C(CCN)c2cccc(OC)c2)c1 [Compound 115, 3,3-bis(3-methoxyphenyl)-1-propylamine]
[1]; [3]
  IC50: 1 µM
[2]; [4]
  IC50: 1.4 µM and 1.9 µM

## NCCN1c2ccccc2CCc2ccccc21 [Eli Lilly Compound, reference compound]
[1]; [3]
  IC50: 1.17 µM
[2]; [4]
  IC50: 0.609 µM

## Fc1cccc(C(=C2CCCNC2)c2cccc(F)c2)c1 [Compound 109]
[1]; [3]
  IC50: 1.08 µM
[2]; [4]
  IC50: 1.95 µM

## NCCCc1ccccc1Cc1ccccc1 [Compound 127]
[1]; [3]
  IC50: 17.5 µM
[2]; [4]
  IC50: 1.2 µM

## COc1ccccc1C(CCN)c1ccccc1OC [Compound 62, 3,3-bis(2-methoxyphenyl)-1-propylamine]
[1]; [3]
  IC50: 0.617 µM
[2]; [4]
  IC50: 0.177 µM

## CCC(N)CC(c1cccc(F)c1)c1cccc(F)c1 (stereo not drawn) [Compound 23, 3,3-bis(3-fluorophenyl)-1-ethyl-1-propylamine]
[1]; [3]
  IC50: 5.4 µM
[2]; [4]
  IC50: 0.267 µM

## CCC(CCN)c1cccc(F)c1 (stereo not drawn) [Compound 35]
[1]; [3]
  IC50: 25.1 µM
[2]; [4]
  IC50: 6.2 µM

## CCC(NCCC(c1ccccc1)c1ccccc1)c1ccc(F)cc1 (stereo not drawn) [Compound 165]
[1]; [3]
  IC50: 171 µM
[2]; [4]
  IC50: 0.337 µM

## CCC(NCCC(c1ccccc1)c1ccccc1)c1ccc(Cl)cc1 (stereo not drawn) [Compound 160]
[1]; [3]
  IC50: 48.9 µM
[2]; [4]
  IC50: 7.35 µM

## NCCC(Oc1ccccc1)c1cccc(F)c1 (stereo not drawn) [Compound 118]
[1]; [3]
  IC50: 0.24 µM
[2]; [4]
  IC50: 0.409 µM

## COc1ccccc1CC(=O)NC(CC(N)=O)C(=O)NCCCCCNCCCNCCCNC(=O)C(N)CCCNC(=N)N (stereo not drawn) [Compound 5]
[1]; [3]
  IC50: 15.2 µM
[2]; [4]
  IC50: 0.102 µM
[2]; TFA salt
  IC50: 0.07 µM

## NCC(Cc1cccc(F)c1)Cc1cccc(F)c1 [Compound 126]
[1]; [3]
  IC50: 6 µM
[2]; [4]
  IC50: 0.398 µM

## NCCC(c1cccc(O)c1)c1cccc(F)c1 (stereo not drawn) [Compound 101]
[1]; [3]
  IC50: 2 µM
[2]; [4]
  IC50: 0.912 µM

## CCC(NCCC(c1ccccc1)c1ccccc1)c1cccc(F)c1 (stereo not drawn) [Compound 164]
[1]; [3]
  IC50: 18.3 µM
[2]; [4]
  IC50: 0.475 µM

## NCCC1c2ccccc2Oc2ccccc21 [Compound 182]
[1]; [3]
  IC50: 7.05 µM
[2]; [4]
  IC50: 2.6 µM
